According to patent US10316371B2, “Screening methods for identifying specific Staphylococcus aureus inhibitors” (TRANA DISCOVERY, INC., priority 2011, dated 2019):
≈ marks a conversion by molar mass, not a printed value.

Legend:
[1] = system: SA 158 (Staphylococcus aureus 158); experiment: MIC; type: cell-based; conditions: SA 158, read-out: MIC
Protocol: The strains included Staphylococcus aureus, Methicillin Resistant (ATCC 33591), Methicillin-Resistant Staphylococcus aureus USA300, Staphylococcus aureus 158, Staphylococcus aureus 22, Staphylococcus aureus 2, Staphylococcus aureus (ATCC 29213), and Staphylococcus aureus 182.
(§1) A series of compounds were evaluated for their activity against drug resistant S. aureus, including MSSA and MRSA strains.

E. faecium 134529 = experiment: MIC; type: cell-based; conditions: Enterococcus faecium; E. faecium 134529; read-out: MIC
Protocol: (§2) The compounds were re-tested against other bacteria, including Staphylococcus epidermidis (ATCC 35984), Staphylococcus epidermidis (MRSE), E. faecium 134529, E. faecium 145494, […], E. faecium 161651, S. pneumoniae 49619, and S. pneumoniae 149389.
as §1

E. faecalis 161651 = experiment: MIC; type: cell-based; conditions: Enterococcus faecalis; E. faecalis 161651; read-out: MIC
Protocol: as §2, §1

E. faecalis 29212 = experiment: MIC; type: cell-based; conditions: Enterococcus faecalis; E. faecalis 29212; read-out: MIC
Protocol: as §2, §1

E. faecium 145494 = experiment: MIC; type: cell-based; conditions: Enterococcus faecium; E. faecium 145494; read-out: MIC
Protocol: as §2, §1

S. epidermidis 35984 = experiment: MIC; type: cell-based; conditions: Staphylococcus epidermidis; S. epidermidis 35984; read-out: MIC
Protocol: as §2, §1

S. pneumoniae 49619 = experiment: MIC; type: cell-based; conditions: Streptococcus pneumoniae; S. pneumoniae 49619; read-out: MIC
Protocol: as §2, §1

S. pneumoniae 149389 = experiment: MIC; type: cell-based; conditions: Streptococcus pneumoniae; S. pneumoniae 149389; read-out: MIC
Protocol: as §2, §1

S. epidermidis MRSE 01 = experiment: MIC; type: cell-based; conditions: Staphylococcus epidermidis; S. epidermidis MRSE 01; read-out: MIC
Protocol: as §2, §1

K. pneumoniae UMM = experiment: MIC; type: cell-based; conditions: Klebsiella pneumoniae; K. pneumoniae UMM; read-out: MIC
[2] = system: Staphylococcus aureus strains (ATCC 33591, USA300, 158, 22, 2, ATCC 29213, 182); experiment: MIC screening of lead compounds against S. aureus strains; type: cell-based; conditions: including vancomycin and methicillin resistant strains
Source text: A series of lead compounds identified in the in vitro screening were subjected to in vivo screening, to determine their effectiveness against S. aureus. The strains included Staphylococcus aureus, Methicillin Resistant (ATCC 33591), Methicillin-Resistant Staphylococcus aureus USA300, Staphylococcus aureus 158, Staphylococcus aureus 22, Staphylococcus aureus 2, Staphylococcus aureus (ATCC 29213), and Staphylococcus aureus 182.

[3] = system: S. aureus specific Arg ASL (anticodon stem loop) RNA oligomer interaction with programmed ribosomes; experiment: Fluorescence polarization assay of Arg ASL / programmed ribosome complex (HTS and dose response); type: binding, S. aureus Arg ASL; E. coli 70S ribosomes; conditions: 6 pt dose response, fluorescence polarization after 4 hours at 25° C., corrected for auto-fluorescence; read-out: IC50
Source text: The assay requires the following materials: • Ribosomes—isolated from E. coli or S. aureus • fMet tRNA (Sigma or Chemical Block, Moscow) • mRNA (including the S-D sequence, the “box” sequence, the codon for methionine, and the codon for arginine that is specific for S. aureus, AGA, optionally with additional base pairs to the left of the S-D sequence and/or to the right of the codon for arginine) • Fluorescently labeled Arg ASL oliogomer • Buffer—HAM20,β • 384 well high binding micro titer plates (Matrix Technologies #4319, sold by Fischer Scientific as cat #50823855), or other appropriate plates for use in high throughput screening • Filtration (Sartorius Stedium 100 Kdalton VC 1042) or centrifugation for complex purification • EDTA—negative control (binding antagonist) • Neomycin—A-site binding enhancer (binding agonist)
A ribosome complex was prepared using the above materials and then purified prior to use in the assay. The prepared complex can be stored in concentrated form at −80° C. The complexes were diluted in buffer and dispensed onto plates. […] Fluorescence polarization was measured at approximately 4 hours after dispensing onto the micro-titer plates.
ASL^Arg was first heated for 2 min at 90° C. in water, after addition of 1/10 V of 10× buffer incubation continued on ice for at least 10 min. Prior to complex formation 70S ribosomes and tRNA were reactivated in buffer for 5 min at 45° C. followed by 10 min at 37° C.; mRNA was heated in buffer at 37° C. for 5 min. • (1000 μl×(2 μM E. coli 70S ribosomes+10 μM mRNA-Arg+4 μM tRNA^fmet)/HAM20,β→30 min @ 37° C.,+1000 μl×(0.2 μM neomycin+[…]))→20 min @ 37° C., overnight on ice • Final complex: (2000 pm P+2000 pm ASL)/2 ml=1 μM P+1 μM ASL HAM20,β:
Preparation of Complexes: The purified complex was diluted in ice cold HAM20,β such that the total fluorescence was approximately 2,000,000 units per 5 μL.
20 μl of the diluted complex was added to all 384 well plates (except for blank wells, which received 20 μL of HAM20 only, without complex) using Multidrop dispenser after which the plates were incubated at 25° C. for 4 hours (target 4.5 hours for middle of batch). Plates were then analyzed for fluorescence polarization in Analyst HT fluorescence plate reader and the following instrument settings:
The parallel and perpendicular fluorescence values of experimental wells were automatically corrected for the corresponding values obtained from the blank wells. The fluorescence polarization was calculated as following: P=(I−Ip)/(I+Ip), wherein Ip—is perpendicular fluorescence and I—is parallel fluorescence.
The percent of effect of experimental compounds was calculated as following: %-Inh=(P0−Pc)/(P0−P100)*100, wherein P0—is average polarization in 0%—inhibition control wells, P100—is average polarization in 100%—inhibition control wells, and Pc—is polarization in compound well.
The 3 sigma HTS hits were cherry picked and retested in 6 pt dose response format, using 3× serial dilution and the top nominal concentration of 100 uM.
The compounds were serially diluted in 10% DMSO and plated into 384 well plates (in a volume of 5 μL) to achieve the nominal final concentration raging from 100 μM to 0.4 μM. The plates received 20 μl of the diluted complex following incubation at 25° C. for 4 hours. Plates were then analyzed for fluorescence polarization as described above (see HTS section).
In parallel, the compounds were tested for auto-fluorescence. To this end, the compounds were plated (using the same dilution protocol) into 384 well plates. The plates received 20 μL of the HAM20 assay buffer only (without complex). The plates were incubated for 4 hrs and then were analyzed for fluorescence polarization as described above.

Mammalian Cell Toxicity = type: cell-based; conditions: mouse, 3T3 cells

Work on `Cc1ccc2nc(-c3ccc(NC(=O)CN4CCN(CCO)CC4)cc3)sc2c1` [Compound #169, 2-[4-(2-hydroxyethyl)-1-piperazinyl]-N-[4-(6-methyl-1,3-benzothiazol-2-yl)phenyl]acetamide] yielded an MIC [1] of 128 µg/mL (≈ 312 µM), an MIC (E. faecium 134529) of 16 µg/mL (≈ 39 µM) and an MIC (E. faecalis 161651) of 16 µg/mL (≈ 39 µM). The MIC (E. faecalis 29212) was 64 µg/mL (≈ 156 µM), the MIC (E. faecium 145494) was 16 µg/mL (≈ 39 µM) and the MIC (S. epidermidis 35984) was 16 µg/mL (≈ 39 µM). It also gave an MIC (S. pneumoniae 49619) of 64 µg/mL (≈ 156 µM), an MIC (S. pneumoniae 149389) of 128 µg/mL (≈ 312 µM) and an MIC (S. epidermidis MRSE 01) of 16 µg/mL (≈ 39 µM). For the same molecule, the MIC (K. pneumoniae UMM) was > 128 µg/mL, the “activity on types of S. aureus” value [2] was “showed activity on all types of S. aureus” and the IC50 [3] was 69.3 µM. For the same molecule, the CC50 (Mammalian Cell Toxicity) was < 2 µg/mL.

For `Brc1ccc(-c2nc(N3CCNCC3)c3ccccc3n2)cc1` [Compound #880, 2-(4-bromophenyl)-4-(1-piperazinyl)-quinazoline], the MIC [1] was 8 µg/mL (≈ 21.7 µM), the MIC (E. faecium 134529) was 8 µg/mL (≈ 21.7 µM) and the MIC (E. faecalis 161651) was 8 µg/mL (≈ 21.7 µM). For the same molecule, the MIC (E. faecalis 29212) was 8 µg/mL (≈ 21.7 µM), the MIC (E. faecium 145494) was 4 µg/mL (≈ 10.8 µM) and the MIC (S. epidermidis 35984) was 8 µg/mL (≈ 21.7 µM). For the same molecule, the MIC (S. pneumoniae 49619) was 32 µg/mL (≈ 86.7 µM), the MIC (S. pneumoniae 149389) was 32 µg/mL (≈ 86.7 µM) and the MIC (S. epidermidis MRSE 01) was 8 µg/mL (≈ 21.7 µM). For the same molecule, the MIC (K. pneumoniae UMM) was > 128 µg/mL, the “activity on types of S. aureus” value [2] was “showed activity on all types of S. aureus” and the IC50 [3] was 19.9 µM. It also gave a CC50 (Mammalian Cell Toxicity) of 2.11 µg/mL (≈ 5.71 µM).
